Results taken from patent publication US5939403A, “Keratan sulfate oligosaccharide fraction and pharmaceutical containing the same” (Seikagaku Corporation, priority 1994, dated 1999).
Counter-ions that a name gives are not always drawn.

How the values were obtained:
[1] = test system: submandibular lymph node; assay: Observation of apoptic body in submandibular lymph node sections (HE staining); type: in vivo, MRL-lpr/lpr mice; conditions: any dose (1, 5, 25 mg/kg i.m.), four weeks
[2] = test system: lymphocytes; assay: Cell differentiation induction: lymphocyte surface antigen of lymph node; type: in vivo, MRL-lpr/lpr mice; conditions: 10 mg/kg i.m., eight weeks; vs control, 2.5 and 5 mg/kg
Description: The PBS solution of the purified keratan sulfate disaccharide (III) which was prepared in Example 1 described above at a dose of 2.5 mg/kg, 5 mg/kg, or 10 mg/kg weight (hereinafter referred to as the 2.5 mg/kg administered group, the 5 mg/kg administered group, and the 10 mg/kg administered group, respectively), and PBS as the control (hereinafter sometimes referred to as the control group) was intramuscularly injected, respectively, to the femoral region of MRL-lpr/lpr mice seven times a week for eight weeks. After that, the mice were subjected to anatomization, and the lymph nodes were minced on a cell strainer (Falcon 2350) to prepare the lymphocyte. The lymphocyte prepared of each group was subjected to the double immune staining with the anti-CD3 antibody (Seikagaku Corporation) and the anti-CD4 antibody (Pharminjen), that with the anti-CD3 antibody and the anti-CD8a antibody (Pharminjen), and that with the anti-CD3 antibody and the anti-B220 antibody (Pharminjen), respectively. The CD3, CD4, and CDBa are cell surface antigens which are expressed on T cells, and the B220 is that expressed on B cells. And it is known that no expression of these cell surface antigens is observed on null lymphocytes.
The proportion (%) of the CD3 and CD4 positive cells (hereinafter sometimes referred to as "the CD3+CD4+cells"; mainly helper T cells) to all the lymphocytes and the standard errors are shown in FIG. 19, that of the CD3 and CD8a positive cells (hereinafter sometimes referred to as "the CD3+CD8a+cells"; mainly suppressor T cells and cytotoxic T cells) and the standard errors are shown in FIG. 20, and that of the CD3 and B220 positive cells (hereinafter sometimes referred to as "the CD3+B220+cells";abnormal T cells having the surface antigens of B cells) and the standard errors are shown in FIG. 21. In the figures, * represents that it has the significant difference with p<0.05 (wherein "p" means a level of significance by the Ryan multiple comparative test). In each group, seven mice were used.

[3] = test system: MRL-lpr/lpr mice; assay: Repeated intramuscular administration for 28 days in MRL mice (submandibular lymph node weight); type: in vivo
Description: The effect of the keratan sulfate oligosaccharide was examined on MRL mice which are autoimmune disease model mice.
The PBS solution of the purified keratan sulfate disaccharide (III) which was prepared in Example 1 described above at a dose of 1 mg/kg, 5 mg/kg, or 25 mg/kg weight (hereinafter referred to as the 1 mg/kg administered group, the 5 mg/kg administered group, and the 25 mg/kg administered group, respectively), and PBS as the control (hereinafter sometimes referred to as the control group) was intramuscularly injected, respectively, to the femoral region of MRL-lpr/lpr mice seven times a week for four weeks. After that, the mice were subjected to anatomization, and the weight of submandibular lymph nodes was determined to obtain the average weight. In each group, six mice were used. Further, in the figure, * represents that it has the significant difference with p<0.05 (wherein "p" means a level of significance by the Bonferroni multiple comparative test).

[4] = test system: allergic conjunctivitis; assay: TDI-induced allergic conjunctivitis model, eye dropping; type: in vivo, female Hartley guinea pigs
Description: A variety of the keratan sulfate oligosaccharide was dropped in the eyes of the guinea pigs subjected to the induction of allergic conjunctivitis to examine the effect thereof.
Toluene diisocyanate (hereinafter referred to as TDI) was diluted with ethyl acetate to a concentration of 10%. To the bilateral vestibule of noses of 10 female Hartley guinea pigs of from about 900 to 1,000 g weight, the 10% TDI (10 μl/animal) obtained above was applied once a day for five days to prepare the TDI sensitization models. The PBS solution of the purified keratan sulfate tetrasaccharide (I) ([…]) which was prepared in Example 1 was dropped in the left eyes of the TDI sensitization models, while PBS was dropped in the right eyes as the control. The dose of dropping was one drop (48+4.6 μl (S.D.)) each from the eye dropper. After 10 minutes, 6.5 μl of 10% TDI was dropped to the both eyes to induce conjunctivitis. After five minutes standing, furthermore, the PBS solution of the keratan sulfate tetrasaccharide (I) ([…]) was dropped in the left eyes, and PBS was dropped in the right eyes. After 15 minutes, observation of the both eyes were carried out. The degree of conjunctivitis was evaluated regarding three items of hyperemia, edema and lacrimation into four grades such as point 0, +1, +2 and +3. In the figure, * represents that it has the significant difference with p<0.05 (wherein "p" means a level of significance by the .chi.^2 test).
The PBS solution of the purified keratan sulfate disaccharide (III), the keratan sulfate tetrasaccharide (I), and the keratan sulfate pentasaccharide (II) (6.0 mg/ml, respectively)which were prepared in Example 1 described above as the test substances were dropped, respectively, in the left eyes of the TDI sensitization models of 10 animals a group each which were prepared in the same manner as in (1) described above, and PBS was dropped in the right eyes as the control. The degree of conjunctivitis was evaluated in the same manner as in (1) described above. In the figure, * represents that it has the significant difference with p<0.05 (wherein "p" means a level of significance by the .chi.^2 test).
The PBS solution containing the purified keratan sulfate tetrasaccharide (I) which was prepared in Example 1 described above, at varieties of concentrations (6 mg/ml, 3 mg/ml, 1.5 mg/ml or 0.75 mg/ml) as the test substance, were dropped, respectively, in the left eyes of the TDI sensitization models of 10 animals a group each which were prepared in the same manner as in (1) described above, and PBS was dropped in the right eyes as the control. The degree of conjunctivitis was evaluated in the same manner as in (1) described above. In the figure, * represents that it has the significant differnce with p<0.05 (wherein "p" means a level of significance by the .chi.^2 test).

[5] = 6.0 mg/ml eye drop, comparison of oligosaccharides

Row | SMILES | existence of the apoptic body [1] | proportion of CD3+B220+ cells (FIG. 21) [2] | proportion of CD3+CD4+ cells (FIG. 19) [2] | proportion of CD3+CD8a+ cells (FIG. 20) [2] | weight increase in submandibular lymph nodes (FIG. 14) ([3]; 5 mg/kg i.m., p<0.05) | weight increase in submandibular lymph nodes (FIG. 14) ([3]; any dose (1, 5, 25 mg/kg i.m.)) | degree of conjunctivitis: hyperemia, edema and lacrimation (FIG. 12) [4, 5] | degree of conjunctivitis: edema (FIG. 12) ([4]; 6.0 mg/ml eye drop, comparison of oligosaccharides, p<0.05) | degree of conjunctivitis: edema (FIG. 13) ([4]; 6 mg/ml, 3 mg/ml, and 1.5 mg/ml eye drop, p<0.05) | degree of conjunctivitis: hyperemia, edema and lacrimation (FIG. 11) ([4]; 100 mg/ml eye drop) | degree of conjunctivitis: edema (FIG. 11) ([4]; 100 mg/ml eye drop, p<0.05) | degree of conjunctivitis: hyperemia, edema and lacrimation (FIG. 13) ([4]; 6, 3, 1.5 and 0.75 mg/ml eye drop)
1 | CC(=O)N[C@H]1C(O)O[C@H](COS(=O)(=O)O)[C@@H](O[C@@H]2O[C@H](COS(=O)(=O)O)[C@H](O)[C@H](O)[C@H]2O)[C@@H]1O (stereo partly drawn) [keratan sulfate disaccharide (III), Gal(6S)β1-4GlcNAc(6S)] | the scattering of the apoptic body was observed | decreased | increased significantly | increased | a significant suppressive effect on the weight increase was observed compared with the control group | a suppressive effect on the weight increase in submandibular lymph nodes was observed | tended to show inhibition in all the items | – | – | – | – | –
2 | CC(=O)N[C@H]1[C@H](O[C@H]2[C@@H](O)[C@@H](COS(=O)(=O)O)O[C@@H](O[C@H]3[C@H](O)[C@@H](NC(C)=O)C(O)O[C@@H]3COS(=O)(=O)O)[C@@H]2O)O[C@H](COS(=O)(=O)O)[C@@H](O[C@@H]2O[C@H](COS(=O)(=O)O)[C@H](O)[C@H](O)[C@H]2O)[C@@H]1O (stereo partly drawn) [keratan sulfate tetrasaccharide (I), Gal(6S)β1-4GlcNAc(6S)β1-3Gal(6S)β1-4GlcNAc(6S)] | – | – | – | – | – | – | tended to show inhibition in all the items | shows a significant inhibitory effect on edema | showed a significant inhibitory effect on edema | tended to show inhibition in all the items | significantly inhibited edema compared with the control | tended to show inhibition in all the items
